The values that follow come from ChEMBL document CHEMBL1201862, “PubChem BioAssay data set” (2004).

In general, EC50 refers to the concentration at which the effect is half-maximal. Usually AC50 stands for the concentration giving half of the maximal activity seen. The CC50 is the concentration at which the toxic effect on the cells reaches its halfway point.

Calls of active or inactive are those of the source. A value given as a limit tells only on which side of the number the result lay.

Assay [1] has as its target Voltage-gated N-type calcium channel alpha-1B subunit/Amyloid beta A4 precursor protein-binding family A member 1 (Homo sapiens, UniProt Q00975+Q02410). The assay can be described thus: disruptors of Mint-PDZ/N-type channel peptide interaction – biochemical, HTRF, set 2, SAR follow-up (AID 434980). Format: functional.
For assay [2], the target named is T1, Intestinal-type alkaline phosphatase (Homo sapiens, UniProt P09923). The assay can be described thus: Dose Response confirmation of uHTS hits from a small molecule inhibitors of human intestinal alkaline phosphatase via a luminescent assay. [Related pubchem assays (depositor defined):AID2544, AID2574]. Format: functional.
For assay [3], the target named is T1, Intestinal-type alkaline phosphatase. The experiment in a line: human intestinal alkaline phosphatase activators, dose response, biochemical, luminescence, uHTS hits (AID 463120). Format: functional.
Assay [4] is described as follows: inhibitors of firefly luciferase expression or activity, dose response, H4 neuroglioma cells, luminescence (AID 1990). The format is functional, cell-based.
A short description of assay [5]: cells. The format is functional, cell-based.
A short description of assay [6]: luciferase reporter signal reduction – luminescence, H4-C neuroglioblastoma cells, dose response (AID 2458).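 Note: H4 neuroglioblastoma cells stably carrying a luciferase reporter gene fusion.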 The format is functional, cell-based.
Assay [7] has as its system BJ. The experiment in a line: cytotoxicity toward BJ-TERT fibroblasts, dose response, cell-based, RAS-independent, luminescence (AID 1933). The following applies: Homo sapiens. The format is functional.
Assay [8] relates to BJ. The experiment in a line: cytotoxicity toward BJ-TERT-LT-ST fibroblasts, dose response, cell-based, RAS-independent, luminescence (AID 1935).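 Note: BJ fibroblasts immortalized with TERT plus LT and ST oncogenes.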 The following applies: Homo sapiens. Format: functional.
Assay [9] has as its system BJ. The experiment in a line: cells. The format is functional, cell-based. The following applies: Homo sapiens.
The subject of assay [10] is J774.A1. The experiment in a line: Confirmation of image-based Screening Assay for Inhibitors of Phagocytosis. [Related pubchem assays (depositor defined):AID1029, AID1643]. The format is functional, cell-based. The following applies: Mus musculus.
A short description of assay [11]: cytotoxicity toward DRD oncogenic fibroblasts, dose response, cell-based, non-viral oncogenic, luminescence (AID 1934). Format: functional. The following applies: Homo sapiens.
Assay [12] is described as follows: inhibitors of SNCA 5'UTR-driven reporter translation, confirmation, H4 neuroglioma cells, luminescence (AID 1988). The format is functional, cell-based.
The nature of assay [13]: inhibitors of SNCA 5'UTR-driven translation, confirmation, luminescence, H4 neuroglioblastoma cells, dose confirmation (AID 2454).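 Note: H4 neuroglioblastoma cells carrying an alpha-synuclein 5'UTR luciferase reporter; potency for inhibition of the luciferase signal.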 The format is functional, cell-based.
Assay [14] deals with INS1. The experiment in a line: beta cell apoptosis inhibitors, cytokine rescue, dose response, luminescence, retest (AID 449756).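 Note: cell death triggered by IL-1 beta plus TNF-alpha plus IFN-gamma mixture; protective hits raise ATP signal compared with cytokine alone wells.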 The following applies: Rattus norvegicus. The format is functional, cell-based.
In assay [15] the target is T2, Replicative DNA helicase DnaB (Mycobacterium tuberculosis, UniProt P9WMR3).
T2 sequence (P9WMR3 whole entry): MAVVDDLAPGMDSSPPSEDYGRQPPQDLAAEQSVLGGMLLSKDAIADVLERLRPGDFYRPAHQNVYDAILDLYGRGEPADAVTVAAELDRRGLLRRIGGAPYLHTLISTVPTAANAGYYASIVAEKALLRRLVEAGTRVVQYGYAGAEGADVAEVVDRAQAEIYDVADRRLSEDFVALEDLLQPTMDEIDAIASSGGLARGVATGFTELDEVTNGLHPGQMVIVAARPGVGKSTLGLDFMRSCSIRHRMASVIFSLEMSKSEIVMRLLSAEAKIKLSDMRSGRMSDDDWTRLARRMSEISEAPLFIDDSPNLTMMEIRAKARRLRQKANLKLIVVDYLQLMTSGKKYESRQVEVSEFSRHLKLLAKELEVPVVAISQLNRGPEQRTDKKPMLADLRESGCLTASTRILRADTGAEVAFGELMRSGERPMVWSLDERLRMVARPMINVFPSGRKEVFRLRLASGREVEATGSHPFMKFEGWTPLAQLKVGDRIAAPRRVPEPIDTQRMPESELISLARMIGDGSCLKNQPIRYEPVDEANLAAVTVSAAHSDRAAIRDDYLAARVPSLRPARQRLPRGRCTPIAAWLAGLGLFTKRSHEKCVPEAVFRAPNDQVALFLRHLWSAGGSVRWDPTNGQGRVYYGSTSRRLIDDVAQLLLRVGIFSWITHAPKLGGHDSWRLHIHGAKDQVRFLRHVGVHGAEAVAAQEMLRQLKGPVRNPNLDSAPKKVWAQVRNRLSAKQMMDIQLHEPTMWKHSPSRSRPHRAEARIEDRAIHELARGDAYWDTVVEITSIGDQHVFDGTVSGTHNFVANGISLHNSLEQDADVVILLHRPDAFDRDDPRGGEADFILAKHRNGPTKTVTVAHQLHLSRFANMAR
The experiment in a line: DnaB intein splicing inhibitors, dose response, biochemical, cell-free fluorescence (AID 449749). Format: functional.

Assay [16] concerns the target Hexokinase HKDC1 (Homo sapiens, UniProt Q2TB90). The assay can be described thus: HKDC1 hexokinase inhibitors, dose response, biochemical, W721R variant (AID 504729). The format is functional.
A short description of assay [17]: enhancers of respiration in Yfh1-depleted yeast, dose response, Friedreich's ataxia, plus single-dose screen (AID 1465).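 Note: yeast depleted of Yfh1p frataxin homolog grown on glycerol needing respiration; WST-1 tetrazolium dye reduction as measure of cellular dehydrogenase metabolic activity.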 Format: functional.
Assay [18] has as its system Vero. The experiment in a line: Vero cell cytotoxicity, cytotoxicity control for flavivirus capping enzyme inhibitors (AID 588742). The format is functional. Particulars: Chlorocebus sabaeus.
In assay [19] the target is T3, Polyadenylate-binding protein 1 (Homo sapiens, UniProt P11940). The assay can be described thus: PABP1 MLLE–PAM2 interaction inhibitors, dose response, miRNA deadenylation inhibitor project, biochemical, fluorescence polarization, Cy5-PAM2 peptide, secondary (AID 602260). The following applies: read-out: IC50_Mean. Format: functional. A general note: Fluorescence polarisation rises when a labelled molecule tumbles more slowly, as on binding a larger partner.

Assay [20] addresses FAD-linked sulfhydryl oxidase ALR (Homo sapiens, UniProt P55789). The experiment in a line: inhibitors of human ALR sulfhydryl oxidase, dose response, biochemical, H2O2 detection, luminescence, cherry-pick (AID 493248).
Assay [21] deals with T4, Microphthalmia-associated transcription factor (Homo sapiens, UniProt O75030).
T4 sequence (O75030 whole entry): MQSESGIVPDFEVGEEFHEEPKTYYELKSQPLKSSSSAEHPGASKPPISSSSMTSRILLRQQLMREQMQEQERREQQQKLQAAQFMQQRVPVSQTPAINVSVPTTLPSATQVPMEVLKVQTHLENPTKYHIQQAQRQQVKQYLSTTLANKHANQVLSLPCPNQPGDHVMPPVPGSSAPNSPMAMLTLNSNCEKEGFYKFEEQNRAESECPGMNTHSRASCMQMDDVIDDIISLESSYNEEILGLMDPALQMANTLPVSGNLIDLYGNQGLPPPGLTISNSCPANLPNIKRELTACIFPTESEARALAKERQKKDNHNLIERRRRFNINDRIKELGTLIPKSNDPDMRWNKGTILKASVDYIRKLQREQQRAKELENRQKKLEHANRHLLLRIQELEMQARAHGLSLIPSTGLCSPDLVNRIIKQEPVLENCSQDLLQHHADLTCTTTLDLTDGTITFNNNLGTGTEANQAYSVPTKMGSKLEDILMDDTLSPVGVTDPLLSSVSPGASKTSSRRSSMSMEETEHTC
The experiment in a line: TRPM1 promoter luciferase signal decrease, dose response, MITF inhibitor project, cell-based, SK-MEL-5, cherry-picked, set 3 (AID 493073).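 Note: SK-MEL-5 melanoma cells with luciferase driven by the MITF target TRPM1 promoter.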 Format: functional.

The target of assay [22] is T3, Polyadenylate-binding protein 1. The experiment in a line: PABP1 MLLE–PAM2 binding inhibitor potency, dose response, biochemical, fluorescence polarization, FITC-PAM2 peptide (AID 602259). Particulars: read-out: IC50_Mean. Format: functional.
Assay [23] concerns the target T5, Protein RecA (Mycobacterium tuberculosis, UniProt P9WHJ3).
T5 sequence (P9WHJ3 whole entry): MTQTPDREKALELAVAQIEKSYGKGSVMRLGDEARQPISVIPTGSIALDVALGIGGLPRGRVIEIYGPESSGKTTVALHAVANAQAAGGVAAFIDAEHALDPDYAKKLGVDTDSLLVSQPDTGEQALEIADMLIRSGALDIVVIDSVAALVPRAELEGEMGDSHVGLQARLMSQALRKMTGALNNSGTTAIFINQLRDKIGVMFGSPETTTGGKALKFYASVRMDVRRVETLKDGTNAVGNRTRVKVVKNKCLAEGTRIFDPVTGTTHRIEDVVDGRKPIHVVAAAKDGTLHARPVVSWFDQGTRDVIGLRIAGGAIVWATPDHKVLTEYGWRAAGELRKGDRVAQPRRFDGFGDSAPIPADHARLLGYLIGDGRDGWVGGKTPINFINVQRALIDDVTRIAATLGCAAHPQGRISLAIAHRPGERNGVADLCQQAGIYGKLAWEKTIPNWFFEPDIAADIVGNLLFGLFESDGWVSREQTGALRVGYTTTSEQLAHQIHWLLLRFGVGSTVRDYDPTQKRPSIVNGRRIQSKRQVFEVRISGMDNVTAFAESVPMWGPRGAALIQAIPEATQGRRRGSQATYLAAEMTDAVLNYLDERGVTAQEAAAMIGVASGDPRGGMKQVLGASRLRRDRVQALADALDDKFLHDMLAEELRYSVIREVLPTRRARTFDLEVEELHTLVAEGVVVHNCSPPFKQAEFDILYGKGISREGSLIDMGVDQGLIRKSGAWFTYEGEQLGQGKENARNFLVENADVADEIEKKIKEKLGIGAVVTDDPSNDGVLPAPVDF
The experiment in a line: Fluorescence Cell-Free Homogeneous Dose Retest to Identify Inhibitors of RecA-Intein Splicing Activity. [Related pubchem assays (depositor defined):AID2097, AID2223, AID489010, AID492950]. The format is functional.

The test system of assay [24] is A-375. The assay can be described thus: A375 melanoma cell viability reduction, dose response, counter-screen for MITF modulator project, cherry-pick samples, set 2 (AID 540335). Format: functional, cell-based. The following applies: Homo sapiens.

T3 sequence (P11940 whole entry): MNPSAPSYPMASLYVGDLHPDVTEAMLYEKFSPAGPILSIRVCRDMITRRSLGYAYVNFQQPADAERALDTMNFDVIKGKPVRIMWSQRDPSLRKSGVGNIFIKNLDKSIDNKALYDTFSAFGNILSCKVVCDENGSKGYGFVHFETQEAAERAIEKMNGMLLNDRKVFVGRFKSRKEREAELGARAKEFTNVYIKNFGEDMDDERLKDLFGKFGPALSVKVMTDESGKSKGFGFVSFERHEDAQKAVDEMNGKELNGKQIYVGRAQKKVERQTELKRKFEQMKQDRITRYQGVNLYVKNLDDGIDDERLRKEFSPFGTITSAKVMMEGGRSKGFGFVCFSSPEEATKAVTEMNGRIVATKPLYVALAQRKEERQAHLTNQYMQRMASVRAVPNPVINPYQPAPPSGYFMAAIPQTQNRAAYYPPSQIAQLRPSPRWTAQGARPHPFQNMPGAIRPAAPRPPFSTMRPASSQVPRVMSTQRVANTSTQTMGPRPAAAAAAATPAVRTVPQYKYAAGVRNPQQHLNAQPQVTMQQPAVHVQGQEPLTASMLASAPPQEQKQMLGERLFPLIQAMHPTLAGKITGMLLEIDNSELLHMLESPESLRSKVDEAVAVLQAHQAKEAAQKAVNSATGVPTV
T1 sequence (P09923 whole entry): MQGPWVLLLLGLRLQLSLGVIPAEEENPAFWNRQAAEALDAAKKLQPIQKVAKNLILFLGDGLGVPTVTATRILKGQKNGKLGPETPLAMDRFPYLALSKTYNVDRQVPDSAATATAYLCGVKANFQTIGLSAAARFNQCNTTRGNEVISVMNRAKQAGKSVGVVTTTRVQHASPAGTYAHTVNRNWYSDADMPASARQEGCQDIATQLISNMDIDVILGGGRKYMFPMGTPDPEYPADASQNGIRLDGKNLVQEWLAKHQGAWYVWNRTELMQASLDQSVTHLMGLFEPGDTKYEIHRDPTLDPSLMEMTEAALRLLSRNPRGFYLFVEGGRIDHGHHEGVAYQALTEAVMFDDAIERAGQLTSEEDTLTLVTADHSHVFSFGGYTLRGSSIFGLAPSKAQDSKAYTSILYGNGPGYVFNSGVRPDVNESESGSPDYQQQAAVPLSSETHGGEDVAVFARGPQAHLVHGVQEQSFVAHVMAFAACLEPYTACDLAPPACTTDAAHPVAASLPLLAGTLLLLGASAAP
Chain of Voltage-gated N-type calcium channel alpha-1B subunit/Amyloid beta A4 precursor protein-binding family A member 1 (Q00975 whole entry): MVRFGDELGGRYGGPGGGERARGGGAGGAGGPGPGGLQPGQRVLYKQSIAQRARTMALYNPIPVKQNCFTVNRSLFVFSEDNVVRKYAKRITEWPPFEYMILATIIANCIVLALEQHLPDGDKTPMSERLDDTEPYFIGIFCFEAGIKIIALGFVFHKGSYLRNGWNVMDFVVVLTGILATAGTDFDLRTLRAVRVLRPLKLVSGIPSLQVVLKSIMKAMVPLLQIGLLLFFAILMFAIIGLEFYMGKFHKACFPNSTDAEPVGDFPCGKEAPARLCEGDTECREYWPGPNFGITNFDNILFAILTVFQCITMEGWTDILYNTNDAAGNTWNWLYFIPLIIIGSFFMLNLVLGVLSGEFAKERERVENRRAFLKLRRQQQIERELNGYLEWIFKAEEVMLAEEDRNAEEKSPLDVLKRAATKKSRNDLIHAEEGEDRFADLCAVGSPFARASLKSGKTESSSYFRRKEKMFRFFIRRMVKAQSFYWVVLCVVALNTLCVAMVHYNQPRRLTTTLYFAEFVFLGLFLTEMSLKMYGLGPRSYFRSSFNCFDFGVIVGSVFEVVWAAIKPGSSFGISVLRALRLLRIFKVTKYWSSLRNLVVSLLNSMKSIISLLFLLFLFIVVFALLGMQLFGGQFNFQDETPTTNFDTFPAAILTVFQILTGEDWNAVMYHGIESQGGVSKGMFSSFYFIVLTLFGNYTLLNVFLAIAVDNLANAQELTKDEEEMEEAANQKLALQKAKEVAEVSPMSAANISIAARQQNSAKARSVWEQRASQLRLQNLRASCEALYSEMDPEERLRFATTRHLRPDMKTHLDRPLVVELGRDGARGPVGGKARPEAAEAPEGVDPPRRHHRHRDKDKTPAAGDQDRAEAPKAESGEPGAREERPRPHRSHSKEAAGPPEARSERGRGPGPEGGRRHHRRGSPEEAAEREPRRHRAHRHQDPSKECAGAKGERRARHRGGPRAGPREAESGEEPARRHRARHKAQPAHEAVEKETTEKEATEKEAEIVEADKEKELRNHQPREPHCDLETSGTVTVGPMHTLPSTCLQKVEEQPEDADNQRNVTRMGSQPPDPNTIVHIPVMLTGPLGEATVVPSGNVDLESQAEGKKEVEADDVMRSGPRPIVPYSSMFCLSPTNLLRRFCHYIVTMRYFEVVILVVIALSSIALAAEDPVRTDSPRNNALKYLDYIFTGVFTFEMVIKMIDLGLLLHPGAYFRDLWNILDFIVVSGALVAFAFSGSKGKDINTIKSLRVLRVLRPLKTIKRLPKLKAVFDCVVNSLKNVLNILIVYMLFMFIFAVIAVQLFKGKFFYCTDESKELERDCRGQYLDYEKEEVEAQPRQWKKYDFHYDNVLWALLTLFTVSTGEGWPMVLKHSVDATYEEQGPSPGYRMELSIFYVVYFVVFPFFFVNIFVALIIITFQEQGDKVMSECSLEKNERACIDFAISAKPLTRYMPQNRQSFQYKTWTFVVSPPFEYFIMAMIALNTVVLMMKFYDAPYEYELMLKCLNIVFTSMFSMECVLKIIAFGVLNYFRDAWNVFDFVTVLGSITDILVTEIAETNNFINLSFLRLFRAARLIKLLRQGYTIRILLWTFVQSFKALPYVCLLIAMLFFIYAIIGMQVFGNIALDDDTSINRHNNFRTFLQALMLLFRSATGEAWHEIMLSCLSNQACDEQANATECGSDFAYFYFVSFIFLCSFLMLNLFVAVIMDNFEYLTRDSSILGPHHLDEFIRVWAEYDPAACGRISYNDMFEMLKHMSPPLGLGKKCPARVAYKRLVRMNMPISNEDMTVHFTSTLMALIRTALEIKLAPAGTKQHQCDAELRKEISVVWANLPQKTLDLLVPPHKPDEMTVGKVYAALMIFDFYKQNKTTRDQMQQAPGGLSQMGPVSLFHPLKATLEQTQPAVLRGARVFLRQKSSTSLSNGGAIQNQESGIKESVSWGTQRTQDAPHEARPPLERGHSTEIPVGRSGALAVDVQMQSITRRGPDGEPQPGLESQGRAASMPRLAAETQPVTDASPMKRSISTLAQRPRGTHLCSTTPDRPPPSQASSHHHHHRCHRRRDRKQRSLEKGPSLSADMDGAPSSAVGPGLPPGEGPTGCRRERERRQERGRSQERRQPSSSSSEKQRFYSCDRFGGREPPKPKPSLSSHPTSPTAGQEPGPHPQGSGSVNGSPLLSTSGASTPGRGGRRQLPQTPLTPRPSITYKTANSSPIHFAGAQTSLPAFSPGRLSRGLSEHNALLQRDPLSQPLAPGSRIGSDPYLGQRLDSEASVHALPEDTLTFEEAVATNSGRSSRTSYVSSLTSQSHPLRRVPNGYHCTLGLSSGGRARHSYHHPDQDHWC
Chain of Voltage-gated N-type calcium channel alpha-1B subunit/Amyloid beta A4 precursor protein-binding family A member 1 (Q02410 whole entry): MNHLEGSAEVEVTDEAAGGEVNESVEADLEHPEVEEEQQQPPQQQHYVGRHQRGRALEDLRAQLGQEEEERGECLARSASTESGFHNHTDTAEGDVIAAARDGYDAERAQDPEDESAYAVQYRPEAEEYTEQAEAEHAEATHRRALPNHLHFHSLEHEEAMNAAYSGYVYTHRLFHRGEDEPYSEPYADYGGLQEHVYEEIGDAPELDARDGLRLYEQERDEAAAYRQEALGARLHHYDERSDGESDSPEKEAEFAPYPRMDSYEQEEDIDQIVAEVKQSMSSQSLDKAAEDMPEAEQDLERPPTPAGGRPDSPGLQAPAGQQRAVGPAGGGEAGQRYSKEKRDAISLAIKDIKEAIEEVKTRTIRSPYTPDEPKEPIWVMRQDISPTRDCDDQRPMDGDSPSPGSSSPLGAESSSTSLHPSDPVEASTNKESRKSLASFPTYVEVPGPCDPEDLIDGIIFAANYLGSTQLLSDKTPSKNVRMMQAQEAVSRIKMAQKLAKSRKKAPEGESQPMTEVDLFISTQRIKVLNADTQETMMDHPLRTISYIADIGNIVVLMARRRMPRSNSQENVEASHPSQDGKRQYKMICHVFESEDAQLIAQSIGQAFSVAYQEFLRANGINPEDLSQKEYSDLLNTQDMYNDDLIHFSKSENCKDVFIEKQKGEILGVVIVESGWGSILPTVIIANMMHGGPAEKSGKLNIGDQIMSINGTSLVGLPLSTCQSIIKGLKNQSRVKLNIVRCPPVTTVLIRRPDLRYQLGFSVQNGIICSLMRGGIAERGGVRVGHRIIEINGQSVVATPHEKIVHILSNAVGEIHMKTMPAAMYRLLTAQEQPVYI
Chain of FAD-linked sulfhydryl oxidase ALR (P55789 whole entry): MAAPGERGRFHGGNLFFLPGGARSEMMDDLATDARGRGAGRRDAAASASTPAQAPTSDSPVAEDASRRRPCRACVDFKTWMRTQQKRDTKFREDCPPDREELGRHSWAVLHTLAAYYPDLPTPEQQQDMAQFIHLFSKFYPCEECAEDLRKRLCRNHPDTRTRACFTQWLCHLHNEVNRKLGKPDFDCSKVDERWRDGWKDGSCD

Take `O=C(NCCN1CCCCC1)c1cc(-c2ccco2)nc2ccccc12`: in assay [1], the IC50 is > 56.8 µM (inactive).
As for `O=C(Nc1cccc(-c2cccc(F)c2)c1)C1CCN(C2CCC2)CC1`, the IC50 in assay [2] is > 100 µM (inactive). For the same compound, in assay [3], the EC50 was > 100 µM (inactive).
As to `COc1ccccc1C1CC(=O)Nc2cc3c(cc21)OCCO3` (centres undefined), the half-maximal effective concentration (EC50) in [4] was 7.13 µM (inconclusive); in assay [5], > 12 µM (not active); in assay [6] it was 2.17 µM (active); in assay [7] it was 7.46 µM (active); in assay [8] it was 1.4 µM (inconclusive); in [9], 19.4 µM (active). The EC50 in [11] was 2 µM (active); in [12], < 100 nM (active); in [13], > 12 µM (not active). Also, the IC50 in [10] is > 25 µM (inactive).
Regarding `COc1ccc(S(=O)(=O)Nc2ccc(O)c3ccccc23)cc1`, the half-maximal activity concentration (AC50) was 4.67 µM (active) in [14]; 82.4 nM (active) in assay [15]; 18.4 µM (active) in assay [20]; 9.07 µM (active) in assay [21]; 33.1 µM (active) in [24]. Further, the IC50 in assay [16] was 21 µM (inactive); in assay [19], > 66 µM (inactive); in assay [22], > 66 µM (inactive). Moreover, the EC50 is > 100 µM (active) in [17] and 47.8 nM (active) in assay [23]. In [18], the 50% cytotoxic concentration (CC50) is > 40 µM (active).
